According to ChEMBL document CHEMBL4334432, “Development of benzochalcone derivatives as selective CYP1B1 inhibitors and anticancer agents” (Medchemcomm, 2019):

Key:
[1] = molecular target: T1, Cytochrome P450 1A2 (Homo sapiens, UniProt P05177); experiment: Inhibition of recombinant human CYP1A2 expressed in supersomes using 7-ethoxyresorufin as substrate after 50 mins in presence of NADP+ by EROD assay; format: ADME
T1 sequence (P05177 whole entry): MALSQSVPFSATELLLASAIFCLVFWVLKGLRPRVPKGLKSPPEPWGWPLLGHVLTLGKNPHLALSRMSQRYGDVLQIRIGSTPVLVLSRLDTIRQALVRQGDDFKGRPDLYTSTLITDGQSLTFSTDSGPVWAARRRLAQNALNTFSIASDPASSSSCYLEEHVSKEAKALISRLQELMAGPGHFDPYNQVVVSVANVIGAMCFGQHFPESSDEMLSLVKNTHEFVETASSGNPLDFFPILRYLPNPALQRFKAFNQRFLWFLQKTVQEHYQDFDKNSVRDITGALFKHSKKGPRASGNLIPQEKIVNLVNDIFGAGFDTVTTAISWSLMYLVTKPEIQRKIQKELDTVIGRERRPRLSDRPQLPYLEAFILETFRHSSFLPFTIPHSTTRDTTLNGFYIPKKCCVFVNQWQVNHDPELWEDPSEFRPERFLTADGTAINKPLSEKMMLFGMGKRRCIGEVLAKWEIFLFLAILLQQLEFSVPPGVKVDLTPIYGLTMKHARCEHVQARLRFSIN

[2] = test system: MCF7; experiment: cells; conditions: Homo sapiens, MCF7, 48 h
Description: Cytotoxicity against human MCF7 cells assessed as reduction in cell viability after 48 hrs by MTT assay

[3] = test system: MCF7; experiment: Cytotoxicity against drug-resistant […]-induced human MCF7 cells overexpressing CYP1B1 assessed as reduction in cell viability after 48 hrs by MTT assay; format: functional, cell-based; conditions: MCF7, 48 h
[4] = Cytotoxicity against drug-resistant human MDA-MB-435/LCC6MDR1 cells assessed as reduction in cell viability after 48 hrs by MTT assay; format: functional, cell-based; conditions: MDA-MB-435/LCC6 MDR1, 48 h
[5] = test system: MDA-MB-231; experiment: cells; conditions: Homo sapiens, MDA-MB-231, 48 h
Description: Cytotoxicity against human MDA-MB-231 cells assessed as reduction in cell viability after 48 hrs by MTT assay

[6] = molecular target: T2, Cytochrome P450 1A1 (Homo sapiens, UniProt P04798); experiment: Inhibition of recombinant human CYP1A1 expressed in supersomes using 7-ethoxyresorufin as substrate after 15 mins in presence of NADP+ by EROD assay; format: ADME
T2 sequence (P04798 whole entry): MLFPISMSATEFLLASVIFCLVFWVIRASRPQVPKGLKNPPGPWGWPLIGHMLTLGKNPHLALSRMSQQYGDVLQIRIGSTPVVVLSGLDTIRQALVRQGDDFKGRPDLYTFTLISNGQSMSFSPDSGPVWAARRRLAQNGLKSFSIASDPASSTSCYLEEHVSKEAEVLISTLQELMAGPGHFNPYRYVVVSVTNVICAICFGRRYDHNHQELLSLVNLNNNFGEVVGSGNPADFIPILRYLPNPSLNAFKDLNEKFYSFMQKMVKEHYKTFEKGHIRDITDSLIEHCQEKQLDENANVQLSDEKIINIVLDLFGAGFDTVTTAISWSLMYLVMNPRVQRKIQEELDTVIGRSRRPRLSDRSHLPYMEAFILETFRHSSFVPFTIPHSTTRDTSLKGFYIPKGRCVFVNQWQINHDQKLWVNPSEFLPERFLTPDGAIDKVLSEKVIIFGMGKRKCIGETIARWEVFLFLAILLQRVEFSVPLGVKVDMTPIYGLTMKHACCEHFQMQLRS

Row | SMILES | IC50 [1] [nM] | other results
1 | O=C(/C=C/c1ccccc1F)c1ccc2ccccc2c1O | > 1000 | –
2 | COc1ccccc1/C=C/C(=O)c1ccc2ccccc2c1O | > 1000 | –
3 | O=C(/C=C/c1cccc(F)c1)c1ccc2ccccc2c1O | > 1000 | –
4 | O=C(CCc1ccccc1)c1ccc2ccccc2c1O | > 1000 | –
5 | COc1ccc(OC)c2c(O)c(C(=O)/C=C/c3ccccc3)cc(OC)c12 | 735 | –
6 | O=C(/C=C/c1ccc[nH]1)c1ccc2ccccc2c1O | > 1000 | –
7 | O=C(/C=C/c1ccccc1)c1ccc2ccccc2c1O | > 1000 | –
8 | O=C(/C=C/c1ccccc1Cl)c1ccc2ccccc2c1O | > 1000 | –
9 | Nc1c(C(=O)/C=C/c2ccccc2)ccc2ccccc12 | > 1000 | –
10 | COc1ccc(OC)c2c(OC)c(/C=C/C(=O)c3ccc4ccccc4c3O)cc(OC)c12 | > 1000 | –
11 | COc1c(C(=O)/C=C/c2ccccc2)ccc2ccccc12 | > 1000 | –
12 | O=C(/C=C/c1ccccc1)c1ccc2ccccc2c1 | > 1000 | IC50 [2]: 24700 nM; IC50 [3]: 18200 nM; IC50 [4]: 19400 nM; IC50 [5]: 34100 nM
13 | O=C(/C=C/c1cccc(Cl)c1)c1ccc2ccccc2c1O | > 1000 | –
14 | O=C(/C=C/c1ccc(F)cc1)c1ccc2ccccc2c1O | > 1000 | –
15 | O=c1[nH]cc(F)c(=O)[nH]1 [FLUOROURACIL] | – | IC50 [2]: > 100000 nM; IC50 [3]: > 100000 nM; IC50 [4]: > 100000 nM; IC50 [5]: 93800 nM
16 | O=c1cc(-c2ccccc2)oc2c1ccc1ccccc12 [ALPHA-NAPHTHOFLAVONE] | – | IC50 [2]: 80700 nM; IC50 [3]: > 100000 nM; IC50 [4]: 82300 nM; IC50 [5]: > 100000 nM; IC50 [6]: 80.3 nM
17 | O=C(/C=C/c1ccncc1)c1ccc2ccccc2c1O | > 1000 | –
18 | O=C(/C=C/c1cccnc1)c1ccc2ccccc2c1O | 227 | –
19 | Nc1nc(-c2ccccc2)cc(-c2ccc3ccccc3c2)n1 | > 1000 | –
20 | O=C(/C=C/c1ccccc1O)c1ccc2ccccc2c1O | > 1000 | –
21 | O=C(/C=C/c1ccccn1)c1ccc2ccccc2c1O | > 1000 | –
22 | O=C(/C=C/c1ccc(Cl)cc1)c1ccc2ccccc2c1O | > 1000 | –
